Measured values published in patent US5840929A, “C4 methoxy ether derivatives of paclitaxel” (Bristol-Myers Squibb Company, priority 1996, dated 1998).

Tested on: HCT-116 human colon carcinoma cells
Test: In vitro cytotoxicity, XTT assay in HCT-116 human colon carcinoma cells (72 h)
Type: cell-based
Details: for Ratio of IC50 of Compound I over Paclitaxel: HCT-116, ratio to paclitaxel IC50; for IC50: Homo sapiens, HCT-116, XTT, 72 hours, 4000 cells/well, read-out: IC50 HCT-116 (drug concentration required to inhibit cell proliferation to 50% of untreated control cells)
Method: Cytotoxicity was assessed in HCT-116 human colon carcinoma cells by XTT (2,3-bis(2-methoxy-4-nitro-5-sulfphenyl)-5-[(phenylamino)carbonyl]2H-tetrazolium hydroxide) assay as reported in D. A. Scudiero, et al., "Evaluation of soluble tetrazolium/formazan assay for cell growth and drug sensitivity in culture using human and other tumor cell lines," Cancer Res. 48:4827-4833, 1988. Cells were plated at 4000 cells/well in 96 well microtiter plates and 24 hours later drugs were added and serial diluted. The cells were incubated at 37° C. for 72 hours at which time the tetrazolium dye, XTT, was added. A dehydrogenase enzyme in live cells reduces the XTT to a form that absorbs light at 450 nm which can be quantitated spectrophotometrically. The greater the absorbance, the greater the number of live cells. The results are expressed in Table I as an IC50, which is the drug concentration required to inhibit cell proliferation (i.e., absorbance at 450 nm) to 50% of that of untreated control cells.

For `CO[C@@]12CO[C@@H]1C[C@H](O)[C@@]1(C)C(=O)[C@H](OC(C)=O)C3=C(C)[C@@H](OC(=O)[C@H](O)[C@@H](NC(=O)OC(C)(C)C)c4ccco4)C[C@@](O)([C@@H](OC(=O)c4ccccc4)[C@H]21)C3(C)C` [Compound Ib, 4-deacetyloxy-4-methoxy-3'-desphenyl-3'-(2-furyl)-3'-N-debenzoyl-3'-N-butoxycarbonyl(paclitaxel)], the “Ratio of IC50 of Compound I over Paclitaxel” value (“Ratio of IC50 of Compound I” for short) was 1.61 and the IC50 was 3.7 nM.

`CO[C@@]12CO[C@@H]1C[C@H](O)[C@@]1(C)C(=O)[C@H](OC(C)=O)C3=C(C)[C@@H](OC(=O)[C@H](O)[C@@H](NC(=O)OC(C)(C)C)c4ccccc4)C[C@@](O)([C@@H](OC(=O)c4ccccc4)[C@H]21)C3(C)C` [Compound Ic, 4-deacetyloxy-4-methoxy-3'-N-debenzoyl-3'-N-butoxycarbonyl(paclitaxel)] was tested, and the “Ratio of IC50 of Compound I” value was 1.69 and the IC50 was 2.2 nM.

`CO[C@@]12CO[C@@H]1C[C@H](O)[C@@]1(C)C(=O)[C@H](OC(C)=O)C3=C(C)[C@@H](OC(=O)[C@H](O)[C@@H](NC(=O)c4ccccc4)c4ccccc4)C[C@@](O)([C@@H](OC(=O)c4ccccc4)[C@H]21)C3(C)C` [Compound Ia, 4-deacetyloxy-4-methoxypaclitaxel] was tested, and the “Ratio of IC50 of Compound I” value was 21.7 and the IC50 was 34.7 nM.

With `CC(=O)O[C@H]1C(=O)[C@@]2(C)[C@H]([C@H](OC(=O)c3ccccc3)[C@]3(O)C[C@H](OC(=O)[C@H](O)[C@@H](NC(=O)c4ccccc4)c4ccccc4)C(C)=C1C3(C)C)[C@]1(OC(C)=O)CO[C@@H]1C[C@@H]2O` [Paclitaxel, paclitaxel] the IC50 was 1.3 to 2.3 nM.
